Measurements taken from US9849130B2 (KamTek, Inc., priority 2014, dated 2017).
Converted amounts (≈) assume the structure as drawn. Read-outs that look alike come from different tables or passages of the source.

Columns and labels:
[1] = system: Clostridium difficile (CD) strains; assay: microbe, parasite or virus in culture; type: cell-based
C. perfringens MH310 = assay: microbe, parasite or virus in culture; type: cell-based; settings: Clostridium perfringens, MH310, C. perfringens MH310
CD strains = assay: In vitro activity of CFM + additional antimicrobial agent against CD (MIC alone/combination, FIC, ΣFIC); type: cell-based, Clostridium difficile; settings: for MIC: Clostridioides difficile, read-out: MIC alone
[2] = Test 1, CD strain VPI 10463, CFM + VAN
[3] = Test 9, CD strain NR32885, CFM + VAN
[4] = Test 11, CD strain NR32885, CFM + VAN
[5] = Test 12, CD strain NR32885, CFM + MET
[6] = Test 18, CD strain NR32888, CFM + VAN
[7] = Test 19, CD strain NR32888, CFM + MET
[8] = Test 2, CD strain VPI 10463, CFM + VAN
[9] = Test 3, CD strain VPI 10463, CFM + MET
[10] = Test 4, CD strain VPI 10463, CFM + MET
[11] = Test 5, CD strain NR32889, CFM + VAN
[12] = Test 6, CD strain NR32890, CFM + VAN
[13] = Test 7, CD strain NR32885, CFM + VAN
[14] = Test 8, CD strain NR32885, CFM + MET
[15] = Test 10, CD strain NR32885, CFM + MET
[16] = Test 13, CD strain BAA1805 (BI/NAP1/027), CFM + VAN
[17] = Test 14, CD strain BAA1805 (BI/NAP1/027), CFM + MET
[18] = Test 15, CD strain BAA1805 (BI/NAP1/027), CFM + MET
[19] = Test 16, CD strain BAA1805 (BI/NAP1/027), CFM + VAN
[20] = Test 17, CD strain BAA1805 (BI/NAP1/027), CFM + MET

CC(C)N=c1cc2n(-c3ccc(Cl)cc3)c3ccccc3nc-2cc1Nc1ccc(Cl)cc1 [CFM, 3-(p-chloroanilino)-10-(p-chlorophenyl)-2,10-dihydro-2-iso-propyliminophenazine]
MIC50 ([1]; Clostridioides difficile): 0.062 µg/mL (≈ 0.131 µM)
MIC90 ([1]; Clostridioides difficile): 0.25 µg/mL (≈ 0.528 µM)
MIC ([1]; Clostridioides difficile, BAA1805, CD isolate BAA1805 (hyper-virulent strain BI/NAP1/027), Table 6): 0.125 µg/mL (≈ 0.264 µM)
MIC ([1]; Clostridioides difficile, BAA1805, CD strain BAA1805 (hyper-virulent strain BI/NAP1/027), BB): 0.125 µg/mL (≈ 0.264 µM)
MIC ([1]; Clostridioides difficile, BAA1805, CD strain BAA1805 (hyper-virulent strain BI/NAP1/027), BHI): 0.125 µg/mL (≈ 0.264 µM)
MIC50 ([1]; n = 37): 0.062 µg/mL (≈ 0.131 µM)
MIC90 ([1]; n = 37): 0.25 µg/mL (≈ 0.528 µM)
MIC Range ([1]; n = 37): ≦0.031-0.25 μg/ml
MIC (C. perfringens MH310; BB): 0.5 µg/mL (≈ 1.06 µM)
MIC (C. perfringens MH310; BHI): 1 µg/mL (≈ 2.11 µM)
MIC (CD strains; BAA1805, Test 13, CD strain BAA1805 (BI/NAP1/027), CFM + VAN): 0.25 µg/mL
MIC (CD strains; BAA1805, Test 14, CD strain BAA1805 (BI/NAP1/027), CFM + MET): 0.25 µg/mL
MIC (CD strains; BAA1805, Test 15, CD strain BAA1805 (BI/NAP1/027), CFM + MET): 0.25 µg/mL
MIC (CD strains; BAA1805, Test 16, CD strain BAA1805 (BI/NAP1/027), CFM + VAN): 0.25 µg/mL
MIC (CD strains; BAA1805, Test 17, CD strain BAA1805 (BI/NAP1/027), CFM + MET): 0.25 µg/mL
MIC (CD strains; [2]): 0.25 µg/mL
MIC (CD strains; [3]): 0.25 µg/mL
MIC (CD strains; [4]): 0.25 µg/mL
MIC (CD strains; [5]): 0.25 µg/mL
MIC (CD strains; [6]): 0.25 µg/mL
MIC (CD strains; [7]): 0.25 µg/mL
MIC (CD strains; Test 20, CD strain NR32888, CFM + VAN): 0.25 µg/mL
MIC (CD strains; Test 21, CD strain NR32888, CFM + MET): 0.25 µg/mL
MIC (CD strains): 0.125 µg/mL
FIC (CD strains; [2]): 0.124
MIC combination (CD strains; [2]): 0.031 µg/mL
ΣFIC (CD strains; Test 1, CD strain VPI 10463, sum for combination CFM + VAN): 0.374
FIC (CD strains; [8]): 0.0312
MIC combination (CD strains; [8]): 0.0039 µg/mL
ΣFIC (CD strains; Test 2, CD strain VPI 10463, sum for combination CFM + VAN): 0.281
FIC (CD strains; [9]): 0.5
MIC alone (CD strains; [9]): 0.125 µg/mL
MIC combination (CD strains; [9]): 0.062 µg/mL
ΣFIC (CD strains; Test 3, CD strain VPI 10463, sum for combination CFM + MET): 1
FIC (CD strains; [10]): 0.5
MIC alone (CD strains; [10]): 0.125 µg/mL
MIC combination (CD strains; [10]): 0.062 µg/mL
ΣFIC (CD strains; Test 4, CD strain VPI 10463, sum for combination CFM + MET): 1
FIC (CD strains; [11]): 1
MIC alone (CD strains; [11]): 0.125 µg/mL
MIC combination (CD strains; [11]): 0.125 µg/mL
ΣFIC (CD strains; Test 5, CD strain NR32889, sum for combination CFM + VAN): 2
FIC (CD strains; [12]): 0.25
MIC alone (CD strains; [12]): 0.125 µg/mL
MIC combination (CD strains; [12]): 0.031 µg/mL
ΣFIC (CD strains; Test 6, CD strain NR32890, sum for combination CFM + VAN): 0.75
FIC (CD strains; [13]): 0.5
MIC alone (CD strains; [13]): 0.125 µg/mL
MIC combination (CD strains; [13]): 0.062 µg/mL
ΣFIC (CD strains; Test 7, CD strain NR32885, sum for combination CFM + VAN): 1
FIC (CD strains; [14]): 0.25
MIC alone (CD strains; [14]): 0.125 µg/mL
MIC combination (CD strains; [14]): 0.031 µg/mL
ΣFIC (CD strains; Test 8, CD strain NR32885, sum for combination CFM + MET): 0.375
FIC (CD strains; [3]): 0.25
MIC combination (CD strains; [3]): 0.062 µg/mL
ΣFIC (CD strains; Test 9, CD strain NR32885, sum for combination CFM + VAN): 0.5
FIC (CD strains; [15]): 0.031
MIC alone (CD strains; [15]): 0.125 µg/mL
MIC combination (CD strains; [15]): 0.0039 µg/mL
ΣFIC (CD strains; Test 10, CD strain NR32885, sum for combination CFM + MET): 0.281
FIC (CD strains; [4]): 0.25
MIC combination (CD strains; [4]): 0.062 µg/mL
ΣFIC (CD strains; Test 11, CD strain NR32885, sum for combination CFM + VAN): 0.5
FIC (CD strains; [5]): 0.031
MIC combination (CD strains; [5]): 0.0078 µg/mL
ΣFIC (CD strains; Test 12, CD strain NR32885, sum for combination CFM + MET): 0.281
FIC (CD strains; [16]): 0.25
MIC combination (CD strains; [16]): 0.062 µg/mL
ΣFIC (CD strains; Test 13, CD strain BAA1805 (BI/NAP1/027), sum for combination CFM + VAN): 0.312
FIC (CD strains; [17]): 0.015
MIC combination (CD strains; [17]): 0.0039 µg/mL
ΣFIC (CD strains; Test 14, CD strain BAA1805 (BI/NAP1/027), sum for combination CFM + MET): 0.031
FIC (CD strains; [18]): 0.06
MIC combination (CD strains; [18]): 0.015 µg/mL
ΣFIC (CD strains; Test 15, CD strain BAA1805 (BI/NAP1/027), sum for combination CFM + MET): 0.185
FIC (CD strains; [19]): 0.25
MIC combination (CD strains; [19]): 0.062 µg/mL
ΣFIC (CD strains; Test 16, CD strain BAA1805 (BI/NAP1/027), sum for combination CFM + VAN): 0.5
FIC (CD strains; [20]): 0.031
MIC combination (CD strains; [20]): 0.0078 µg/mL
ΣFIC (CD strains; Test 17, CD strain BAA1805 (BI/NAP1/027), sum for combination CFM + MET): 0.156
FIC (CD strains; [6]): 0.5
MIC combination (CD strains; [6]): 0.125 µg/mL
ΣFIC (CD strains; Test 18, CD strain NR32888, sum for combination CFM + VAN): 1
FIC (CD strains; [7]): 0.062
MIC combination (CD strains; [7]): 0.015 µg/mL
ΣFIC (CD strains; Test 19, CD strain NR32888, sum for combination CFM + MET): 0.125
